The values that follow are results of earlier work, collected in paper PMC11887511 (Crystal Growth & Design, 2025).

The conditions of the data set: no reference given.

Regarding `O=C(O)CNCC(=O)O` [IDA, iminodiacetic acid], the pKa1 was 2.12, the pKa2 is listed as 2.90 and the “pKa[base]” value was 9.63.
